These results are taken from PubChem BioAssay (NCI).

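Tested at 5 concentrations; 48 h exposure; 96-well plates; endpoints linearly interpolated, else capped at highest concentration. GI50 = concentration required for 50% inhibition of growth. TGI marks complete inhibition of growth.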

Common to all, as to assay: growth of human tumour cells (NCI), 48 h
In experiment [1] the test system is COLO 205 colon.
Experiment [2] relates to DLD-1 colon.
Experiment [3] relates to HOP-18 NSCLC.
Experiment [4] has as its system LOX IMVI melanoma.
In experiment [5] the test system is MALME-3M melanoma.
Experiment [6] deals with MOLT-4 leukemia.
Experiment [7] deals with OVCAR-3 ovarian.
Experiment [8] deals with RXF 393 renal.
Experiment [9] concerns SF-295 CNS.
Experiment [10] relates to SK-MEL-2 melanoma.
Experiment [11] concerns SK-MEL-28 melanoma.
Experiment [12] relates to SNB-78 CNS.
The test system of experiment [13] is SR leukemia.
Experiment [14] concerns UACC-257 melanoma.
For experiment [15], the system named is RXF-631 renal.

As to `Cc1c(N)c(C#N)c2n(C)c3ncccc3n2c1=O`, the TGI in experiment [1], in [2], in experiment [3], in [4], in experiment [5] and in experiment [6] was more than 100 µM in each case. In addition, the TGI in experiment [7], in experiment [8], in experiment [9], in [10], in experiment [11] and in experiment [12] was more than 100 µM each time. Besides, the TGI in experiment [13] and in experiment [14] was more than 100 µM each time.

For `CC(=O)[CH-]C(=O)c1ccccc1.CC(=O)[CH-]C(=O)c1ccccc1.CC[C@H](CCC(C)[C@H]1CCC2[C@@H]3CC=C4C[C@@H]([O-])CC[C@]4(C)C3CC[C@@]21C)C(C)C.CC[C@H](CCC(C)[C@H]1CCC2[C@@H]3CC=C4C[C@@H]([O-])CC[C@]4(C)C3CC[C@@]21C)C(C)C.Cl.[Ti+4]` (some centres not stated), the TGI in experiment [1], in [2], in [3], in [4], in experiment [5] and in experiment [6] was more than 25 µM each time. Further, the TGI in experiment [7], in experiment [8], in experiment [9], in experiment [10], in experiment [11] and in experiment [14] was more than 25 µM throughout. The GI50 in experiment [2], in [3] and in experiment [8] was more than 25 µM in each case.

Take `O=C1NC(=S)NC(=O)C1=Cc1ccc([N+](=O)[O-])o1`: the TGI in [1] was 38.2 µM; in experiment [2], 39 µM; in experiment [3], 35.3 µM; in experiment [4] it was 38.7 µM; in experiment [5], 28.4 µM; in experiment [6] it was 43.4 µM. Also, the TGI in experiment [8] was 38.3 µM; in experiment [15] it was 33.5 µM; in experiment [9], more than 100 µM; in experiment [10], more than 100 µM; in experiment [11], 47.7 µM; in [12], 49.3 µM. Besides, the TGI in experiment [13] is 43.9 µM; in experiment [14], more than 100 µM.

With `[N-]=[N+]=NC1(Cc2ccccc2)C(=O)Nc2ccccc2C1=O` (configuration not stated), the TGI in experiment [1], in experiment [2], in [3], in experiment [4], in experiment [5] and in experiment [6] was more than 100 µM in each case. The TGI in [7], in experiment [9], in experiment [10], in experiment [11], in [12] and in experiment [13] was more than 100 µM throughout. For the same compound, in experiment [14], the TGI is more than 100 µM.

With `C=CCc1cc(OC)c(O)c(C(=O)/C=C/c2ccc(OC)c(OC)c2)c1`, the TGI is 31.4 µM in experiment [1]; 37.2 µM in [2]; 91.8 µM in [4]; 37 µM in experiment [5]; 41.3 µM in experiment [7]; 83.9 µM in experiment [15]. Moreover, the TGI in experiment [9] was 74.1 µM; in [10], 28.8 µM; in [11] it was 33.6 µM; in [12], more than 100 µM; in experiment [14] it was 37.4 µM.

With `CC1=CP(=O)(OC(C)C)C=C(C)C1=C(Cl)Cl` (configuration not stated), the TGI in [1] was 35 µM; in [2], more than 100 µM; in experiment [3], more than 100 µM; in experiment [4] it was more than 100 µM; in experiment [5], more than 100 µM; in experiment [6], more than 100 µM. In addition, the TGI is more than 100 µM in experiment [7]; more than 100 µM in experiment [8]; more than 100 µM in experiment [15]; more than 100 µM in experiment [9]; 59 µM in experiment [10]; more than 100 µM in experiment [11]. Moreover, the TGI in [13] and in experiment [14] was more than 100 µM each time.

Consider `CCCCN(CCCC)CC(C(=O)Nc1ccc([N+](=O)[O-])cc1[N+](=O)[O-])/C(C)=N\NC(=O)c1ccncc1` (configuration not stated), for which the TGI in experiment [1], in experiment [2], in experiment [4], in experiment [5], in [6] and in experiment [7] was more than 100 µM each time. The TGI in experiment [8], in experiment [15], in [9], in experiment [10], in experiment [11] and in experiment [12] was more than 100 µM in each case. This compound also yielded a TGI in experiment [14] of more than 100 µM.

Regarding `CCN(CC)CC(C(C)=O)C(c1ccccc1)c1c(O)c2ccccc2oc1=O` (configuration not stated), the TGI in experiment [1], in experiment [2], in experiment [3], in experiment [4], in experiment [5] and in experiment [6] was more than 100 µM throughout. The TGI in experiment [7], in experiment [8], in experiment [9], in experiment [10], in experiment [11] and in experiment [12] was more than 100 µM throughout. In addition, the TGI in experiment [13] and in experiment [14] was more than 100 µM in each case.

As for `O=C1C=C(Nc2cc(Cl)ccc2Cl)c2ccccc2C1=O`, the TGI was more than 100 µM in [1]; more than 100 µM in [2]; 70 µM in experiment [3]; 39.4 µM in experiment [5]; 63.7 µM in [7]; more than 100 µM in experiment [8]. The TGI in experiment [15] is more than 100 µM; in [9], 79.3 µM; in experiment [10], 33.9 µM; in experiment [11], more than 100 µM; in experiment [12], more than 100 µM; in experiment [14], 41.8 µM.

Turning to `CC(=O)NNc1nc(C)c(C(=O)/C=C/c2ccc(N(C)C)cc2)s1`, the TGI in [1], in experiment [2], in experiment [3], in experiment [4], in [5] and in experiment [6] was more than 100 µM in each case. Also, the TGI in experiment [7], in experiment [8], in [15], in experiment [9], in experiment [10] and in experiment [11] was more than 100 µM throughout. Also, the TGI in experiment [12] and in experiment [14] was more than 100 µM in each case.

Consider `COc1ccc(N=Nc2c(-c3ccccc3)nn(C(=O)CC(=O)Nc3ccc(OC)cc3)c2-c2ccccc2)cc1`, for which the TGI in [1], in [2], in experiment [3], in experiment [4], in experiment [5] and in experiment [6] was more than 100 µM throughout. The TGI in experiment [7], in [15], in experiment [9], in [10], in [11] and in experiment [12] was more than 100 µM each time. Further, the TGI in [14] was more than 100 µM.
